Measured values from US9375459B2, “Cyclic peptides with an anti-neoplasic and anti-angiogenic activity” (priority 2011, dated 2016).
Where a SMILES comes first, the peptide text is derived from it.

Each molecule was assayed on human tumor cells (assay: Cytotoxic activity screening of peptide library on human tumor cell lines, SRB method). Settings: SRB method; cytotoxic = dose-dependent 50% inhibition of proliferation, GI50 below 100 μM in at least one cell line.
Format: cell-based
Protocol: Negative control cells were cultured on a volume of vehicle equal to that of the experimental samples. An “x-y” curve (dose-response) was established with the percent of surviving cells, compared in respect to the negative control cells, and the following parameters were estimated: 50% growth inhibition (GI50); Total growth inhibition (TGI); and the lethal concentration 50 (LC50), that is the concentration causing the 50% of cell death (Boyd M R, Paull K D, and Rubinstein L R (1992) “Data display and analysis strategies for the NCI Disease Oriented In-Vitro Antitumor Drug Screen, in Cytotoxic Anticancer Drugs: Models and Concept for Drug Discovery and Development” (Baleriote F A, Corbett T H and Baker L H eds) pp 11-34, Kluwer Academia Publishers, Boston).
Were considered as cytotoxic peptides all those peptides being able of inhibiting 50% of the cellular proliferation, in a dose-dependent manner, and showing GI50 values below 100 μM, at least in one of the cell lines studied. The human tumor cell lines used were: HEp-2 (larynx carcinoma), A549 (lung epithelial adenocarcinoma), M14 (melanoma), Colo 205 (colon adenocarcinoma), Ls174T (colon adenocarcinoma), LnCAP (prostate carcinoma), PC-3 (prostate carcinoma) and H 125 (non-small cell lung adenocarcinoma). Represented are primary sequences for the designed peptides, the code used for its generation and their respective cytotoxic capacity on human tumor cells.
`CC[C@H](C)[C@H](NC(=O)[C@H](CCCNC(=N)N)NC(=O)[C@H](CCC(N)=O)NC(=O)[C@H](CC(N)=O)NC(=O)[C@H](C)NC(=O)[C@@H](NC(=O)[C@H](Cc1ccc(O)cc1)NC(=O)CNC(=O)[C@@H](N)CO)[C@@H](C)O)C(=O)N[C@@H](CC(N)=O)C(=O)N[C@@H](CC(C)C)C(=O)N[C@@H](CC(N)=O)C(=O)N[C@@H](CCC(=O)O)C(=O)N[C@@H](CCCCN)C(=O)N[C@@H](CO)C(=O)N[C@@H](Cc1ccccc1)C(=O)N[C@@H](CO)C(=O)N[C@@H](CC(=O)O)C(=O)N[C@H](C(=O)NCC(N)=O)C(C)C` [Peptide A07P42] (H-SGYTANQRINLNEKSFSDVG-NH2) was tested, and the “Cytotoxic activity in vitro” value was “− (symbol − indicates its absence, following criteria established in Example 2)”.
`CC(C)C[C@H](NC(=O)[C@@H](NC(=O)[C@H](CC(=O)O)NC(=O)[C@H](CC(N)=O)NC(=O)CNC(=O)[C@H](C)NC(=O)CNC(=O)CNC(=O)[C@H](CCCCN)NC(=O)[C@H](CC(C)C)NC(=O)[C@@H](NC(=O)[C@H](CC(N)=O)NC(=O)[C@H](CC(N)=O)NC(=O)[C@H](C)N)C(C)C)C(C)C)C(=O)N[C@@H](Cc1ccccc1)C(=O)NCC(=O)NCC(=O)NCC(=O)NCC(=O)N[C@@H](C)C(N)=O` [Peptide A07P43] (H-ANNVLKGGAGNDVLFGGGGA-NH2) was tested, and the “Cytotoxic activity in vitro” value was “− (symbol − indicates its absence, following criteria established in Example 2)”.
In the case of `CC[C@H](C)[C@H](NC(=O)[C@H](C)NC(=O)[C@H](CC(N)=O)NC(=O)[C@H](CCC(=O)O)NC(=O)[C@@H](NC(=O)[C@@H](NC(=O)[C@@H](NC(=O)CNC(=O)[C@H](C)NC(=O)[C@H](C)NC(=O)[C@@H](NC(=O)[C@H](CO)NC(=O)[C@@H](NC(=O)[C@H](CC(N)=O)NC(=O)CNC(=O)[C@H](CCCCN)NC(=O)[C@H](CC(C)C)NC(=O)CN)C(C)C)[C@@H](C)CC)C(C)C)[C@@H](C)O)[C@@H](C)CC)C(=O)NCC(=O)NCC(N)=O` [Peptide A07P44] (H-GLKGNVSIAAGVTIENAIGG-NH2), the “Cytotoxic activity in vitro” value is reported as “− (symbol − indicates its absence, following criteria established in Example 2)”.
`CC[C@H](C)[C@H](NC(=O)[C@H](C)NC(=O)[C@H](CC(N)=O)NC(=O)[C@H](CCC(=O)O)NC(=O)[C@@H](NC(=O)[C@@H](NC(=O)[C@@H](NC(=O)CN)C(C)C)[C@@H](C)O)[C@@H](C)CC)C(=O)NCC(=O)NCC(=O)N[C@@H](CO)C(=O)NCC(=O)N[C@@H](CC(N)=O)C(=O)N[C@@H](CC(=O)O)C(=O)N[C@H](C(=O)N[C@H](C(=O)N[C@H](C(=O)NCC(=O)N[C@@H](CC(N)=O)C(=O)N[C@@H](C)C(N)=O)C(C)C)[C@@H](C)CC)C(C)C` [Peptide A07P45] (H-GVTIENAIGGSGNDVIVGNA-NH2) was tested, and the “Cytotoxic activity in vitro” value was “− (symbol − indicates its absence, following criteria established in Example 2)”.
In the case of `CC(C)C[C@H](NC(=O)[C@H](CCC(=O)O)NC(=O)[C@H](CC(=O)O)NC(=O)[C@H](C)NC(=O)CNC(=O)CNC(=O)CNC(=O)CNC(=O)[C@H](Cc1ccccc1)NC(=O)[C@H](CC(C)C)NC(=O)[C@@H](NC(=O)[C@H](CC(=O)O)NC(=O)[C@@H](N)CC(N)=O)C(C)C)C(=O)N[C@@H](Cc1c[nH]c2ccccc12)C(=O)NCC(=O)NCC(=O)N[C@@H](C)C(=O)NCC(=O)N[C@@H](CCCCN)C(=O)N[C@@H](CC(=O)O)C(N)=O` [Peptide A07P46] (H-NDVLFGGGGADELWGGAGKD-NH2), the “Cytotoxic activity in vitro” value is reported as “− (symbol − indicates its absence, following criteria established in Example 2)”.
`CC[C@H](C)[C@H](NC(=O)[C@H](CO)NC(=O)[C@@H](NC(=O)[C@H](CC(N)=O)NC(=O)CNC(=O)[C@H](CCCCN)NC(=O)[C@H](CC(C)C)NC(=O)CNC(=O)CNC(=O)[C@@H](NC(=O)[C@H](CC(=O)O)NC(=O)[C@H](CO)NC(=O)[C@H](Cc1ccccc1)NC(=O)[C@H](CO)NC(=O)[C@H](CCCCN)NC(=O)[C@H](CCC(=O)O)NC(=O)[C@H](CC(N)=O)NC(=O)[C@@H](N)CC(C)C)C(C)C)C(C)C)C(=O)N[C@@H](C)C(=O)N[C@@H](C)C(N)=O` [Peptide A07P47] (H-LNEKSFSDVGGLKGNVSIAA-NH2) was tested, and the “Cytotoxic activity in vitro” value was “− (symbol − indicates its absence, following criteria established in Example 2)”.
`C[C@H](NC(=O)[C@H](C)NC(=O)[C@H](Cc1ccc(O)cc1)NC(=O)[C@H](Cc1c[nH]cn1)NC(=O)CNC(=O)CNC(=O)[C@H](CC(N)=O)NC(=O)[C@H](CC(=O)O)NC(=O)CNC(=O)CNC(=O)[C@@H](NC(=O)[C@H](CC(N)=O)NC(=O)[C@@H](NC(=O)[C@H](CCC(=O)O)NC(=O)[C@H](CO)NC(=O)[C@H](Cc1c[nH]c2ccccc12)NC(=O)[C@H](Cc1ccc(O)cc1)NC(=O)[C@@H](N)CO)[C@@H](C)O)[C@@H](C)O)C(=O)N[C@@H](C)C(=O)N1CCC[C@H]1C(N)=O` [Peptide D06P91] (H-SYWSETNTGGDNGGHYAAAP-NH2) was tested, and the “Cytotoxic activity in vitro” value was “− (symbol − indicates its absence, following criteria established in Example 2)”.
With `CC[C@H](C)[C@H](NC(=O)[C@H](C)NC(=O)[C@H](C)NC(=O)[C@@H](NC(=O)[C@H](CC(=O)O)NC(=O)[C@H](CC(=O)O)NC(=O)[C@H](CC(C)C)NC(=O)[C@H](CC(C)C)NC(=O)[C@@H]1CCCN1C(=O)[C@H](C)NC(=O)[C@H](C)NC(=O)[C@H](C)NC(=O)[C@H](Cc1ccc(O)cc1)NC(=O)[C@H](Cc1c[nH]cn1)NC(=O)CNC(=O)CNC(=O)[C@H](CC(N)=O)NC(=O)[C@@H](N)CC(=O)O)[C@@H](C)CC)C(=O)N[C@@H](CCC(N)=O)C(=O)N[C@@H](Cc1c[nH]cn1)C(N)=O` [Peptide E07P01] (H-DNGGHYAAAPLLDDIAAIQH-NH2) the “Cytotoxic activity in vitro” value was “− (symbol − indicates its absence, following criteria established in Example 2)”.
In the case of `CC[C@H](C)[C@H](NC(=O)[C@H](CC(N)=O)NC(=O)[C@@H](N)C(C)C)C(=O)NCC(=O)NCC(=O)N[C@@H](Cc1c[nH]cn1)C(=O)N[C@@H](CCC(N)=O)C(=O)N[C@@H](C)C(=O)N1CCC[C@H]1C(=O)N[C@@H](CC(=O)O)C(=O)N[C@@H](Cc1ccccc1)C(=O)N[C@@H](CC(C)C)C(=O)N[C@H](C(=O)N[C@@H](CCCCN)C(=O)N[C@H](C(=O)N[C@H](C(=O)NCC(=O)N[C@@H](CCC(N)=O)C(=O)N[C@H](C(=O)N[C@@H](CC(=O)O)C(N)=O)C(C)C)C(C)C)[C@@H](C)CC)C(C)C` [Peptide E07P02] (H-VNIGGHQAPDFLVKIVGQVD-NH2), the “Cytotoxic activity in vitro” value is reported as “− (symbol − indicates its absence, following criteria established in Example 2)”.
`CC[C@H](C)[C@H](NC(=O)[C@H](Cc1ccccc1)NC(=O)[C@H](CC(=O)O)NC(=O)[C@@H](NC(=O)[C@H](C)NC(=O)[C@@H](NC(=O)[C@H](CC(=O)O)NC(=O)[C@@H](NC(=O)[C@H](CCC(N)=O)NC(=O)CNC(=O)[C@@H](NC(=O)[C@@H](NC(=O)[C@H](CCCCN)NC(=O)[C@@H](NC(=O)[C@H](CC(C)C)NC(=O)[C@@H](N)Cc1ccccc1)C(C)C)[C@@H](C)CC)C(C)C)C(C)C)C(C)C)[C@@H](C)O)C(=O)N[C@H](C(N)=O)C(C)C` [Peptide E07P03, FLVKIVGQVDVATDFIV- amide] (H-FLVKIVGQVDVATDFIV-NH2) was tested, and the “Cytotoxic activity in vitro” value was “− (symbol − indicates its absence, following criteria established in Example 2)”.
